# Test results published in US20210069295A1, “GALECTINS CONTROL MTOR IN RESPONSE TO ENDOMEMBRANE DAMAGE AND PROVIDE A MECHANISM AND TARGET FOR THE TREATMENT OF AUTOPHAGY-RELATED DISEASES” (STC. UNM, priority 2017, published 2021).
# Peptide text beside a SMILES is read from it.
# Test system: mTOR
# Experiment: mTOR localization relative to LAMP2-positive lysosomes (HC and confocal microscopy)
# Assay type: cell-based
# Description: (A) Dose-response analysis of mTOR activity in HEK293T cells treated with glycyl-L-phenylalanine 2-naphththylamide (GPN) in full medium for 1 h. mTOR activity was monitored by inununoblotting analysis of S6K1 (T389) and ULK1 (S757) phosphorylation (phosphorylated S6K (T389) and ULK1 (S757) relative to total S6K and ULK1, respectively). (B) Analysis of mTOR activity (as in A) after GPN washout. HEK293T cells were treated with 100 μM GPN for 1 h followed by 1 h washout in full medium. Data, means±SEM (n=3), **p<0.01, ANOVA. (C) Analysis of mTOR activity (as in A) in HEK293T cells treated with increasing doses of silica in full medium for 1 h. (D) HEK293T cells were treated with lysosomal damaging agents (LLOMe, Leu-Leu-OMe) for 1 h in full medium and status of acidified organelles assessed by quantifying LysoTracker Red DND-99 puncta using automated high-content imaging and analysis (HC). None-treated cells were as control (Ctrl). White masks, algorithm defined cell boundaries (primary objects); yellow masks, computer-identified LysoTracker Red puncta (target objects). Data, means±SEM, n≥3 independent experiments (500 primary objects counted per well; ≥5 wells/sample per each experiment), **p<0.01, ANOVA. (E) Analysis of mTOR activity in primary human macrophages treated with GPN. Human peripheral blood monocyte derived macrophages were treated with 100 μM GPN in full medium or starved in EBSS for 1 h, and mTOR activity measured as in A. None-treated cells were as control (Ctrl). (F) Quantification by HC of overlaps between mTOR and LAMP2 (representative images shown in FIG. S1D) in HeLa cells treated with lysosomal damaging agents for 1 h in full medium. Data, means±SEM, n≥3 independent experiments (500 primary objects counted per well; ≥5 wells/sample per each experiment) **p<0.01, ANOVA. (G) Immunofluorescence confocal microscopy visualization of mTOR localization relative to LAMP2-positive lysosomes. […] (H) Analysis of TFEB nuclear translocation in HeLa cells treated with 100 μM GPN in full medium for 1 h, and the nuclear translocation of TFEB was measured by HC (Nuclei, Hoechst 33342, blue pseudocolor; TFEB red fluorescence, Alexa-568). […] White masks, computer algorithm-defined cell boundaries (primary objects); pink masks, computer-identified nuclear TFEB based on the average intensity of Alexa-568 fluorescence. Data, means±SEM, n≥3 independent experiments (500 primary objects counted per well; ≥5 wells/sample per each experiment), **p<0.01, ANOVA. (I) HeLa cells were treated as indicated in full medium for 1 h, and LC3 puncta were quantified by HC. […] Data, means±SEM, n≥3 independent experiments (500 primary objects counted per well; ≥5 wells/sample per each experiment), **p<0.01, ANOVA. […]
compound,measurement,setting,value
"NCC(=O)N[C@@H](Cc1ccccc1)C(=O)Nc1ccc2ccccc2c1 [GPN, glycyl-L-phenylalanine 2-naphththylamide] (HELM PEPTIDE1{G.F.[c1ccc2cc(N[*:1])ccc2c1]}$$$$V2.0)",mTOR localization in cells expressing RagBQ99L,"HEK293T stably expressing RagBQ99L, 100 μM GPN 1 h",remained on lysosomes
same,"mTOR localization (lysosomes vs cytosol, overlap with LAMP2)","HeLa cells, 1 h full medium",translocated from lysosomes to the cytosol
